# Measured values: patent publication US5177059A, “Polymyxin B conjugates” (Sandoz Ltd., priority 1990, dated 1993)
# What was measured:
# Assay type in all cases: in vivo
# non-sensitized mice = experiment: PMB (native and conjugated forms) induced lethality, i.p.; settings: i.p. injection, lethality monitored for 7 days
# Procedure: B. PMB (native and conjugated forms) induced lethality
# PMB (native and conjugated forms) are evaluated for their inherent toxicity in non-sensitized mice. Male CB57BL/c mice (18-22 g, Jackson Labs) are used throughout this study. Animals are given either native PMB or conjugated PMB by intraperitoneal injection (0.5 ml/animal) and lethality monitored for 7 days. The LD100 is determined by varying the dose of PMB (native and conjugated forms) that result in 100% lethality. From 10-20 animals are used for each dose.
# endotoxin (0111B4) = experiment: PMB anti-endotoxin evaluations: protection from endotoxin-induced lethality in galactosamine-hypersensitized mice
# Procedure: A. Endotoxin-induced lethality
# Male CB57BL/c mice (18-22 g, Jackson Labs) are used throughout this study. Animals are given endotoxin (0111B4 from List Biologicals, Palo Alto, Calif.) and galactosamine to hypersensitize, as described in Galanos et al., 1979. Proc. Natl. Acad. Sci. USA 76: 5939. The endotoxin and galactosamine (320 mg/kg) are injected intraperitoneally in 0.5 ml pyrogen-free isotonic saline per animal between 13:00 and 15:00 to avoid diurnal variation. From a dose-response study, it is determined that 0.01 mg/kg endotoxin produces 85-95% lethality. Animals are observed each day for 6 days after injection.
# C. PMB anti-endotoxin evaluations
# PMB (native and conjugated forms) are evaluated for their ability to neutralize endotoxin by either pre-mixing with endotoxin for 60 minutes before i.p. injection or by coadministration of the substances as a single i.p. injection. While the concentration of the PMB (native and conjugated forms) are varied, the volume of each injection is kept constant at 0.5 ml per animal. The protection by the conjugated PMB was compared to the native PMB (in terms of mg protein/kg). Controls (endotoxin, galactosamine, and vehicle) are included as well in each study. Each group has between 10-17 animals. […]
# The Therapeutic Index (TI) for PMB (native and conjugated) forms is determined by dividing the LD100 by the PD100. […]
# normal test animal = experiment: i.v. toxicity (LD0, LD100), lethality monitored over 7 days
# Excerpt: LD0 is the highest non-toxic dose of PMB or its conjugate.
# LD100 is the dose of PMB or its conjugated form which results in 90-100% lethality when injected into a normal test animal.
# The "ultra pure" PMB-conjugate has a suprising reduction in toxicity as compared with native PMB. […] Comparisons in the table below are made between the highest non-toxic dose of PMB (native or conjugated)
# ^1 PMB (native or conjugate) given by i.v. injection and lethality
# monitored over 7 days. LD0 is the highest nontoxic dose which can be
# injected into a normal test animal.
# E.coli 0111B4 endotoxin = experiment: i.v. protection against LD90 endotoxin challenge (endotoxin-induced lethality test); settings: i.v. injection 1-3 minutes before an LD90 i.p. injection of E.coli 0111B4 endotoxin (0.5 μg/kg)
# Procedure: The resulting "ultra pure" PMB-conjugate is compared to native PMB in an endotoxin-induced leathality test as described in Example 3C supra.
# At 1 mg/kg i.v., the ultra-pure PMB-conjugate gave >70% protection against a LD90 endotoxin challenge for at least 6 hours. […] Therefore the PMB-conjugate is suitable for prophylactic use.
# ^2 PMB (native or conjugate) given by i.v. injection 1-3 minutes
# before an LD90 i.p. injection of E.coli 0111B4 endotoxin (0.5
substance,measurement,setting,value
polymyxin B [Native PMB],LD100,non-sensitized mice,25 mg/kg
same,PD100,endotoxin (0111B4); PMB or conjugate allowed to react with the endotoxin for 60 min before i.p. injection,2 mg/kg
same,PD100,"endotoxin (0111B4); i.p., dose giving >95% survival, pre-mixing or coadministration with endotoxin not stated for the row",2 mg/kg
same,LD100,normal test animal; i.v.,9.5 mg/kg
same,LD0 (highest non-toxic dose),"normal test animal; i.v. injection, lethality monitored over 7 days",5 mg/kg
same,PD100,E.coli 0111B4 endotoxin,0.1 mg/kg
